Several values for one entry are separate records, joined by “and”; a condition that tells them apart may be missing. Identical values can stand only once.
Key:
primary MM cells = conditions: Roccaro et al., 2012; cited from earlier work
[1] = system: human umbilical vein endothelial cells (HuVEC); assay: HuVEC capillary tube formation; type: cell-based; conditions: HuVEC on MATRIGEL, 18 hours
Procedure: In this example, the ability of the anti-CXCR4 human antibodies to inhibit capillary tube formation by human umbilical vein endothelial cells (HuVEC) was examined […]® was diluted 1:1 with RPMI and plated onto the wells of a 96 well plate and allowed to polymerize for 30 minutes at 37° C. HuVEC (from Cambrex, cat. # CC-2519) at 80% confluence were trypsinized and resuspended at 1×10^6 cells per ml in RPMI with 0.5% FBS. Antibodies were well mixed with HuVEC at a final concentration of 3 mg/ml and allowed to incubate at room temperature for 30 minutes. An irrelevant antibody of the same isotype or media alone was used as a negative control. As a positive control of inhibition of tube formation, a mouse anti-human αvβ3 (CD51/CD61) antibody (R&D Systems, cat. # MAB3050) was used. HuVEC with or without antibodies were plated onto the […]®-coated wells and incubated at 37° C. for 18 hours.
The HuVEC incubated with media alone or with the isotype-matched control antibody formed capillary tubes resulting in the appearance of connected cells across the plate with 3-5 points of connection or branch points per cell. […] The cells appeared isolated and with few or no branch points.

MM.1S cells = assay: MM.1S MM xenograft in SCID mice; type: in vivo
Ramos cells = assay: Ramos subcutaneous tumor cell model; type: in vivo, mouse; conditions: IP day 0 and 7; 15 mg/kg (Fab′ 10 mg/kg, also day 3 and 10)
Source text: In this example, the ability of the anti-CXCR4 human antibodies to inhibit proliferation of an established solid tumor in vivo was examined using a Ramos subcutaneous tumor cell model. In this assay, 10×10^6 Ramos cells/mouse were implanted into the flank region of each mouse and allowed to grow to a mean size of 40 mm^3, calculated by length×width×height/2 of the tumors. The mice then received an intraperitoneal (IP) injection of a first dose of antibody (designated as day 0 of treatment) and received a second IP dose of antibody on day 7. Mice treated with a Fab′ fragment antibody also received IP antibody doses on day 3 and day 10. […] Tumor volume and mouse body weight were measured at regular intervals (approximately 2-3 times/week) between day 0 and day 30 post dosing. The results of the experiment are presented in FIGS. 12A, 12B and 12C, which show mean tumor volume (FIG. 12A), median tumor volume (FIG. 12B) and median % body weight change (FIG. 12C). […] All treatments were well-tolerated as indicated by no significant body weight change. The differences in body weights between treatments were most likely due to the weights of the tumors.

MM cells [2] = conditions: Roccaro et al., 2012; cited from earlier work
[3] = system: Bortezomib-resistant JJN-3R cells; assay: JJN-3R MM xenograft in SCID mice; type: in vivo
Nomo-1 = Nomo-1 AML xenograft; type: in vivo, SCID mice
Source text: In the Nomo-1 model (7.5 million cells implanted subcutaneously as in Example 14).

KG-1 = KG-1 tumor growth inhibition (monotherapy); type: in vivo
parental JJN-3 cells = assay: JJN-3 MM xenograft in SCID mice; type: in vivo; conditions: Day 25; compared to vehicle control; MDX-1338 10 mg/kg/dose IP, bortezomib 0.8 mg/kg/dose IV
Source text: 5 million JJN-3 cells/mouse were implanted into SCID mice and the mice were randomized into groups of 8 when the tumor volume reached approximately 77 mm^3.

CCRF-CEM = CCRF-CEM tumor growth inhibition (monotherapy); type: in vivo
HL-60 cells = assay: HL-60 AML xenograft in SCID mice; type: in vivo; conditions: for median tumor growth inhibition: Day 27, 10 mg/kg/dose
Source text: To assess the antibody's efficacy in AML, two cytarabine-resistant mouse xenograft models, HL-60 and Nomo-1 were used. CXCR4 expression in each cell line was confirmed by FACS staining (FIG. 4A). SCID mice were subcutaneously implanted with 10 million HL-60 cells as described in Example 14.

CLL cells = conditions: 2-200 nM; Kashyap et al., 2012; cited from earlier work
B16-CXCR4 cells = assay: B16-CXCR4 lung metastases, C57 mouse systemic tumor model; type: in vivo; conditions: day 14, 5 mg/kg IP
Procedure: In this example, the ability of the F7 anti-CXCR4 mAb to inhibit lung metastases was examined using a C57 mouse systemic tumor model. More specifically, 0.4×10^6 B16-CXCR4 cells (B16 cells transfected to express human CXCR4) were injected intravenously into each of 30 mice of the C57 strain. The mice were randomized into three groups of ten mice each, which were then treated with either (i) vehicle (PBS); (ii) IgG4 isotype control (5 mg/kg); or (iii) F7 IgG4 (5 mg/kg). The antibody or vehicle was injected intraperitoneally 30 minutes after the B16-CXCR4 cells were injected intravenously. Lungs were harvested on day 14 and the number of lung metastasis nodules was quantitated.

[4] = system: Twist, Snail, Slug, E-Cadherin; conditions: Roccaro et al., 2012; cited from earlier work
MM cells [5] = assay: Apoptotic and CXCL12 signalling pathways in MM cells; type: cell-based
Source text: The BMS936564 antibody targeted MM cells in the context of BM milieu by overcoming BMSC-induced proliferation of tumor cells. […] Importantly, as described in Example 16, BMS936564 inhibited MM cell proliferation in vivo in xenograft mouse models.

[6] = system: Namalwa Burkitt's lymphoma cells; assay: Namalwa subcutaneous xenograft; type: in vivo, mouse
Procedure: Additional subcutaneous xenograft tumor models were tested for the ability of anti-CXCR4 antibodies to inhibit tumor growth, in experiments similar to those described above and in Example 9. […] Although the tumor cells in vivo were stainable by the mAb by immunohistochemistry, it is unclear at what stage of their tumor growth CXCR4 began to be expressed.

BMS-936564: fully human anti-CXCR4 monoclonal antibody; VH SEQ ID NO: 25, VL SEQ ID NO: 29
adhesion of primary MM cells to BMSCs (primary MM cells): inhibited by BMS936564 in a dose-dependent manner
inhibition of capillary tube formation [1]: most effective in inhibiting capillary tube formation
mean tumor growth inhibition (MM.1S cells; Day 25, compared to isotype control, MDX-1338 10 mg/kg/dose, lenalidomide 100 mg/kg): 60%
% Tumor Growth Inhibition (Monotherapy) (MM.1S cells; MM.1S): 49%
tumor growth inhibition (MM.1S cells; MM.1S): MDX-1338 = 60%
tumor cell growth (tumor volume) (Ramos cells): significantly inhibited tumor cell growth
migration of MM cells toward CXCL12 and primary MM BMSCs (MM cells [2]): inhibited migration
mice tumor-free at the end of study ([3]; 30-mg/kg group): 4 out of 7
% Tumor Growth Inhibition (Monotherapy) ([3]; JJN3R): 97%
tumor growth inhibition ([3]; JJN-3R): MDX-1338 = 100%
median tumor growth inhibition ([3]; day 25, 10 or 30 mg/kg/dose IP, compared to isotype control): 100%
% Tumor Growth Inhibition (Monotherapy) (Nomo-1; Nomo-1): 88%
median tumor growth inhibition (Nomo-1; day 34, 10 mg/kg/dose, compared to isotype or vehicle control): 88%
% Tumor Growth Inhibition (Monotherapy) (KG-1): 23%
tumor growth inhibition (parental JJN-3 cells): 52%
% Tumor Growth Inhibition (Monotherapy) (CCRF-CEM): 72%
median tumor growth inhibition (HL-60 cells; compared to isotype): 88%
median tumor growth inhibition (HL-60 cells; compared to vehicle): 83%
% Tumor Growth Inhibition (Monotherapy) (HL-60 cells; HL60): 60% and 82%
cell death in CLL cells cultured alone and in the MRD model (CLL cells): induced cell death
Number of Lung Metastases Mean (B16-CXCR4 cells): 157
Number of Lung Metastases Median (B16-CXCR4 cells): 186
% Inhibition of Lung Mets (Mean) (B16-CXCR4 cells; listed as F7 Anti-CXCR4 IgG4, 5 mg/kg): 56%
% Inhibition of Lung Mets (Mean) (B16-CXCR4 cells; listed as F7 mAb, 5 mg/kg): 56%
effect on EMT-related proteins [4]: inhibits the EMT-related proteins Twist, Snail and Slug, and up-regulates E-Cadherin
CXCL12-induced ERK-, Aid-, and Src-phosphorylation (MM cells [5]): inhibited by BMS936564 in a dose-dependent manner
activation of apoptotic pathways in MM cells (MM cells [5]): cleavage of caspase-9 and PARP
% Tumor Growth Inhibition (Monotherapy) [6]: 66%
tumor growth inhibition ([6]; 3 mg/kg): approximately 70%
